According to article PMC7802074, “Azanitrile Inhibitors of the SmCB1 Protease Target Are Lethal to Schistosoma mansoni: Structural and Mechanistic Insights into Chemotype Reactivity” (ACS Infectious Diseases, 2020):
Values joined by “and” are separate entries in the source; they are usually repeats but may differ in a detail not shown here. Equal entries are not always repeated. Where two headings read alike, the source gives them in different places.

Tests used:
[1] = Cytotoxicity, XTT test, HepG2; assay type: cell-based; conditions: human, % viability vs. untreated cells, read-out: Cell line viability after 72 h; for viability at 72 h, 1 µM: HepG2, 1 µM; for viability at 72 h, 10 µM: HepG2, 10 µM
Method: (§1) T able S4. […]
(§2) Cell line viability after 72 h (%)a
(§3) Inhibitor 1 µM 10 µM 1 µM 10 µM
(§4) aCytotoxicity of the inhibitors towards human cell lines are expressed as % viability vs. untreated cells. Cells were treated with
(§5) the indicated concentration of the compounds for 72 h and assayed by means of the XTT test (as described previously 12).
(§6) Standard deviation values were within 10% of the mean of tetraplicates. […]

[2] = system: S. mansoni newly transformed schistosomula (NTS); test: Schistosome phenotypic assay; assay type: cell-based, Schistosoma mansoni; conditions: for Descriptors Day 1 (phenotypic changes) / Descriptors Day 2 (phenotypic changes) / Descriptors Day 3 (phenotypic changes) / Descriptors Day 4 (phenotypic changes): 10 µM inhibitor; for Severity score Day 1 / Severity score Day 2 / Severity score Day 3 / Severity score Day 4: 10 μM inhibitor, scale 0 (no effect) to 4 (severe); for Severity score Day 1: 24 h; for Severity score Day 2: 48 h
Method: Newly transformed schistosomula (NTS) of S. mansoni were prepared by mechanically transforming infective larvae (cercariae) as described previously.[70],[71] NTS (200–300 parasites) were incubated in 200 μL of Basch Medium 169 containing 5% FBS, 100 U mL^–1 penicillin, and 100 μg mL^–1 streptomycin at 5% CO2 and 37 °C.[70],[72],[73] Inhibitors were added at the final concentration of 10 μM,[20],[69] and changes in phenotypes were observed every 24 h for up to 4 days. A constrained nomenclature of “descriptors” is used to record the multiple and dynamic changes in movement, shape, and translucence of which the schistosome parasite is capable (Table S3).[70] These descriptors are then converted into an ordinal “severity score” system from 0 (no effect) to 4 (maximum effect), which allows for the relative comparison of compound effects, as described.[74],[75] Images of NTS were captured using a Zeiss Axiovert 40 C inverted microscope (10× objective) and a Zeiss AxioCam MRc digital camera controlled by AxioVision 40 (v. 4.8.1.0) software.

recombinant SmCB1 = recombinant SmCB1 (Schistosoma mansoni, UniProt Q8MNY2, T185A/T300A); test: SmCB1 kinetic inhibition assay with fluorogenic substrate Cbz-Phe-Arg-AMC; assay type: biochemical; conditions: substrate Cbz-Phe-Arg-AMC; for SmCB1 inhibition k2nd (second-order rate constant): slow-binding azadipeptide nitriles
Method: Inhibition measurements were performed in triplicates in 96-well microplates (100 μL assay volume) at 37 °C. SmCB1 (20–40 pM) was added to a mixture of the fluorogenic substrate Cbz-Phe-Arg-AMC (20 μM) and an inhibitor (0–100 μM) in 0.1 M sodium acetate, pH 5.5, containing 2.5 mM dithiothreitol and 0.1% PEG 6000. The substrate hydrolysis was monitored in an Infinite M1000 microplate reader (Tecan, Männedorf, Switzerland) at excitation and emission wavelengths of 360 and 465 nm, respectively, for up to 15 and 60 min for fast- and slow-binding inhibitors, respectively. […] For slow-binding inhibitors, an observed first-order rate constant kobs was calculated at each inhibitor concentration by fitting the progress curve to the equation P = vst + (vi – vs)(1 – […])/kobs + d, where P is the product formation, vs is the steady-state velocity, t is the reaction time, vi is the initial velocity, and d is the offset. The inhibition constant Ki′ was determined by nonlinear regression using the equation vs/v0 = 1/(1 + [I]/Ki′). The true inhibition constants Ki were then calculated using the equation Ki = Ki′/(1 + [S]/Km), where [S] is the substrate concentration and Km is the Michaelis constant. The apparent second-order rate constant k2nd′ was determined by fitting to the linear equation kobs = k2nd′[I] + koff, where koff is the first-order rate constants for the dissociation of the enzyme–inhibitor complex and the true constant k2nd was calculated by the correction k2nd = k2nd′(1 + [S]/Km). […] In none of the assay systems did the final concentration of DMSO exceed 1.5%.

[3] = Cytotoxicity, XTT test, HUVEC; assay type: cell-based; conditions: human, % viability vs. untreated cells, read-out: Cell line viability after 72 h
Method: as §1, §2, §3, §4, §5, §6

[4] = SmCB1 inhibition Ki, kinetic activity assay, pH 5.5, 37 °C
[5] = SmCB1 inhibition Ki, Table S2, carbadipeptide nitriles
[6] = Table S2, carbadipeptide nitriles, read-out: SmCB1 inhibition Ki

recombinant SmCB1, sequence (Q8MNY2 87-340 T185A/T300A): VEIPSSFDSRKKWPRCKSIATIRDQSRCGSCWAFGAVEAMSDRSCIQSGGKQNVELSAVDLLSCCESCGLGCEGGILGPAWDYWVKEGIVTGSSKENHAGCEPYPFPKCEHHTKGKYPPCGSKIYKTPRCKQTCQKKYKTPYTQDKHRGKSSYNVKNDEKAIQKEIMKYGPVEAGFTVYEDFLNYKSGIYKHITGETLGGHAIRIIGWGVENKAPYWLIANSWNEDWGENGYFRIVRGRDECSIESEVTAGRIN

Row | Structure (SMILES) | viability at 72 h, 1 µM [1] [%] | viability at 72 h, 10 µM [1] [%] | Descriptors Day 1 (phenotypic changes) [2] | Descriptors Day 2 (phenotypic changes) [2] | Severity score Day 1 [2] | Severity score Day 2 [2] | Severity score Day 3 [2] | Severity score Day 4 [2] | Ki (recombinant SmCB1; [4]) [µM] | SmCB1 inhibition k2nd (second-order rate constant) (recombinant SmCB1) | viability at 72 h, 1 µM [3] [%] | viability at 72 h, 10 µM [3] [%] | Ki (recombinant SmCB1; [5]) [µM] | Descriptors Day 3 (phenotypic changes) [2] | Descriptors Day 4 (phenotypic changes) [2] | Ki (recombinant SmCB1; [6]) [µM]
1 | CC(C)CC(NC(=O)NCc1ccccc1)C(=O)N(C)N(C)C#N (centres unmarked) [Compound 3a] | 82 | 83 | R, Unc, Dark | Deg | 3 | 4 | 4 | 4 | 0.0061 ± 0.0007 | 20.4 10^3 M^-1 s^-1 and 20.4 ± 1.9 10^3 M^-1 s^-1 | 106 | 90 |  |  |  | 
2 | CC(C)C[C@H](NC(=O)c1ccc(-c2noc(-c3cccs3)n2)cc1)C(=O)N(C)N(C)C#N [Compound 5a] | 91 | 101 | Deg | Deg | 2 | 4 | 4 | 4 | 0.0048 ± 0.0003 | 29.0 10^3 M^-1 s^-1 and 29.0 ±1.4 10^3 M^-1 s^-1 | 91 | 66 |  |  |  | 
3 | CN(C(=O)[C@H](Cc1ccccc1)NC(=O)OCc1ccccc1)N(C#N)CCc1ccccc1 [Compound 8a] | 102 | 83 | Deg |  | 4 and 4/4 | 4 and 4/4 | 4 | 4 | 0.0048 ± 0.0002 | 5.2 10^3 M^-1 s^-1 and 5.2 ± 0.4 10^3 M^-1 s^-1 | 101 | 44 |  |  |  | 
4 | CN(CC#N)C(=O)[C@H](Cc1ccccc1)NC(=O)OCc1ccccc1 [Compound 9c] |  |  |  |  | 0 | 0 | 0 | 0 | > 100 |  |  |  | > 10 |  |  | 
5 | CN(C(=O)[C@H](Cc1ccccc1)NC(=O)OCc1ccccc1)N(C#N)Cc1ccccc1 [Compound 10a] |  |  | R, Unc | Deg | 2 | 4 | 4 | 4 | 0.0489 ± 0.0047 | 1.5 ± 0.1 10^3 M^-1 s^-1 |  |  |  |  |  | 
6 | C[C@@H](C#N)N(C)C(=O)[C@H](Cc1ccccc1)NC(=O)OCc1ccccc1 [Compound 10c] |  |  |  |  | 0 | 0 | 0 | 0 | > 100 |  |  |  | > 10 |  |  | 
7 | CCC(C)C(NC(=O)OCc1ccccc1)C(=O)N(C)N(C)C#N (centres unmarked) [Compound 12a] |  |  | Deg |  | 4 and 4/4 | 4 and 4/4 | 4 | 4 | 0.0717 ± 0.0044 |  |  |  |  |  |  | 
8 | COc1ccc(C[C@H](NC(=O)OCc2ccccc2)C(=O)N(C)N(C)C#N)cc1 [Compound 13a] |  |  | Deg | Deg | 4 and 4/4 | 4 and 4/4 | 4 | 4 | 0.0806 ± 0.0071 |  |  |  |  |  |  | 
9 | CC(C)[C@H](NC(=O)OCc1ccccc1)C(=O)N(C)N(C)C#N [Compound 14a] |  |  | R, Unc, Dark | Deg | 3 | 4 | 4 | 4 | 0.0883 ± 0.0104 |  |  |  |  |  |  | 
10 | C[C@H](NC(=O)OCc1ccccc1)C(=O)N(C)N(C)C#N [Compound 15a] |  |  | R, Unc | Deg | 2 | 4 | 4 | 4 | 0.714 ± 0.058 |  |  |  |  |  |  | 
11 | Cc1nc(-c2ccc(CNC(=O)N[C@@H](CC(C)C)C(=O)N(C)N(C)C#N)cc2)no1 [Compound 16a] |  |  |  | R, Unc | 0 | 2 | 3 | 4 | 0.03 ± 0.0041 | 9.2 ± 0.8 10^3 M^-1 s^-1 |  |  |  | R, Unc, Dark | Deg | 
12 | CC(C)C[C@H](NC(=O)NCc1ccc(-c2noc(-c3cccs3)n2)cc1)C(=O)N(C)N(C)C#N [Compound 17a] |  |  |  |  | 0 and 0/0 | 0 and 0/0 | 0 | 0 | 0.0583 ± 0.0028 | 3.1 ± 0.6 10^3 M^-1 s^-1 |  |  |  |  |  | 
13 | CC(C)C[C@H](NC(=O)Nc1ccccc1)C(=O)N(C)N(C)C#N [Compound 18a] |  |  | R, Unc | Deg | 2 | 4 | 4 | 4 | 0.112 ± 0.011 |  |  |  |  |  |  | 
14 | CCCC[C@H](NC(=O)OC(C)(C)C)C(=O)NCC#N [Gü967] |  |  |  |  | 0 | 0 | 0 | 0 |  |  |  |  |  |  |  | 0.87 ± 0.1
15 | CC(C)(C)OC(=O)N[C@@H](Cc1cccs1)C(=O)NCC#N [Gü969] |  |  |  |  | 0 | 0 | 0 | 0 |  |  |  |  |  |  |  | 0.62 ± 0.05
16 | CC(C)(C)OC(=O)N[C@@H](Cc1ccc(-c2ccccc2)cc1)C(=O)NCC#N [Gü1124] |  |  |  |  | 0 | 0 | 0 | 0 |  |  |  |  |  |  |  | 0.27 ± 0.05
17 | N#CCNC(=O)[C@H](Cc1ccccc1)NC(=O)c1ccc(-c2ccccc2)cc1 [Gü1136] |  |  |  |  | 0 | 0 | 0 | 0 |  |  |  |  |  |  |  | 0.053 ± 0.012
18 | N#CCNC(=O)[C@H](Cc1ccc(O)cc1)NC(=O)OCc1ccccc1 [Gü2031] |  |  |  |  | 0 | 0 | 0 | 0 |  |  |  |  |  |  |  | 0.76 ± 0.22
19 | CC(C)C[C@H](NC(=O)c1ccc(-c2ccccc2)cc1)C(=O)NCC#N [Gü2420] |  |  |  | R, Dark | 0 | 2 | 2 | 2 |  |  |  |  |  | R, Dark | R, Dark | 0.056 ± 0.013
20 | N#CCNC(=O)[C@H](CC1CCCCC1)NC(=O)c1ccc(-c2noc(-c3cccs3)n2)cc1 [Gü2421] |  |  | R, S | R, S | 2 | 2 | 3 | 3 |  |  |  |  |  | R, S, Dark | R, S, Dark | 0.012 ± 0.004
